Assay results reported in patent US9029092B2, “Solution phase homogeneous assays” (Beckman Coulter, Inc., priority 2009, dated 2015).

These compounds were tested on biotinylated HRP (assay: Model system for selection of SSIA (AK1/streptavidin BSA microparticles + biotinylated HRP)). Settings: Btn-HRP 0 ng/mL, total HRP 500 ng/mL; SSIA 100 μM final.
Format: biochemical, horseradish
Description: The model system uses a microparticle conjugated to BSA (bovine serum albumin) labeled with a […] and acridan ketenedithioacetal chemiluminescent label (AK1) as the chemiluminescent-labeled sbp, and biotinylated HRP as the activator-labeled specific binding pair. In the model system, varying amounts of Btn-HRP is added to the chemiluminescent-labeled specific binding pair at 0, 1, 10, 100 and 250 ng/mL. Additional unlabeled HRP is added to reach a total HRP of concentration of 500 ng/mL in each reaction mixture. The unlabeled HRP in combination with the activator-labeled sbp was provided to the chemiluminescent-labeled sbp microparticles to emulate sample. A compound for assessment as an SSIA was also added. This reaction mixture of the model system is then triggered by addition of trigger solution in a manner of assays of the present disclosure.
To prepare the chemiluminescent-labeled sbp on microparticles, Bovine Serum Albumin (BSA) was biotinylated with 4× molar excess of biotin-LC-sulfoNHS (Pierce Biotechnology Inc., Rockford, Ill., USA). Unbound reactants were removed via desalting or dialysis. The biotin-BSA was then reacted with a 5× molar excess of an NHS ester of acridan ketenedithioacetal AK1 in 20 mM sodium phosphate pH 7.2: DMSO 75:25, v/v) followed by desalting in the same buffer. The dual labeled (biotin and AK1) BSA was then coupled with tosyl activated M280 microparticles (Invitrogen Corporation, Carlsbad, Calif., USA) in a 0.1M borate buffer pH 9.5 at a concentration of about 20 μg of labeled BSA per mg of microparticles for 16-24 h at 40° C. After coupling the microparticles were stripped for 1 h at 40° C. with 0.2 M TRIS base, 2% SDS, pH˜11. The stripping process was repeated one additional time. Microparticles were then suspended in a 0.1% BSA/TRIS buffered saline (BSA/TBS) buffer and streptavidin (SA) was added at approximately 15 μg SA per mg microparticles. Streptavidin was mixed with the microparticles for 45-50 min at room temperature. The microparticles were then washed three times and suspended in the same BSA/TBS.
HRP, (Roche Diagnostics, Indianapolis, Ind., USA) was biotinylated with 4× molar excess of biotin-LC-sulfoNHS (Pierce Biotechnology Inc., Rockford, Ill., USA). Alternatively, 25× molar excess of biotin-PEO4-NHS may be used. Unbound reactants were removed via desalting or dialysis.
Each SSIA compound for assessment was solubilized in Buffer II at a concentration at least 10× of the working strength concentration.
25 μl of 1 mg/ml of dual-labeled (biotin and AK1) BSA M280 particles were mixed with 45 μl of working concentration SSIA in Buffer II. The assay volume brought to 85 μl by adding 15 μl of Buffer II. 15 μl of sample containing Btn-HRP:HRP at different ratios (The amount of biotinylated-HRP varied from 0, 1, 10, 100 and 250 ng/mL) was added. The reaction mixture was incubated for 30 min at 37° C., then 100 μL of trigger solution was added and the light intensity recorded. Total volume of reaction mixture, including trigger solution was 200 μL with a final concentration of 100 μM of SSIA.
The screening tests were performed using a modified DxI® Immunoassay System (Beckman Coulter, Inc. Brea, Calif.) as described above.
`N[C@@H](CCC(=O)N[C@@H](CS)C(=O)NCC(=O)O)C(=O)O` [Glutathione] was tested, and the “light intensity, BTN-HRP0” value was 26,977.

Same assay, conditions: Btn-HRP 1 ng/mL vs 0; SSIA 100 μM final
In the case of `N[C@@H](CCC(=O)N[C@@H](CS)C(=O)NCC(=O)O)C(=O)O` [Glutathione], the S1/S0 is reported as 2.1.

Same assay, conditions: Btn-HRP 1 ng/mL, total HRP 500 ng/mL; SSIA 100 μM final
`N[C@@H](CCC(=O)N[C@@H](CS)C(=O)NCC(=O)O)C(=O)O` [Glutathione] was tested, and the “light intensity, BTN-HRP1” value was 55,719.

Same assay, conditions: Btn-HRP 10 ng/mL vs 0; SSIA 100 μM final
Compound `N[C@@H](CCC(=O)N[C@@H](CS)C(=O)NCC(=O)O)C(=O)O` [Glutathione] has an S2/S0 of 92.

Same assay, conditions: Btn-HRP 10 ng/mL, total HRP 500 ng/mL; SSIA 100 μM final
`N[C@@H](CCC(=O)N[C@@H](CS)C(=O)NCC(=O)O)C(=O)O` [Glutathione] was tested, and the “light intensity, BTN-HRP10” value was 2,480,764.

Same assay, conditions: Btn-HRP 100 ng/mL vs 0; SSIA 100 μM final
Compound `N[C@@H](CCC(=O)N[C@@H](CS)C(=O)NCC(=O)O)C(=O)O` [Glutathione] has an S3/S0 of 323.7.

Same assay, conditions: Btn-HRP 100 ng/mL, total HRP 500 ng/mL; SSIA 100 μM final
With `N[C@@H](CCC(=O)N[C@@H](CS)C(=O)NCC(=O)O)C(=O)O` [Glutathione] the “light intensity, BTN-HRP100” value was 8,733,068.

Same assay, conditions: Btn-HRP 250 ng/mL vs 0; SSIA 100 μM final
With `N[C@@H](CCC(=O)N[C@@H](CS)C(=O)NCC(=O)O)C(=O)O` [Glutathione] the S4/S0 was 369.4.

Same assay, conditions: Btn-HRP 250 ng/mL, total HRP 500 ng/mL; SSIA 100 μM final
In the case of `N[C@@H](CCC(=O)N[C@@H](CS)C(=O)NCC(=O)O)C(=O)O` [Glutathione], the “light intensity, BTN-HRP250” value is reported as 9,965,235.

Same assay, conditions: SSIA 100 μM final
For `N[C@@H](CCC(=O)N[C@@H](CS)C(=O)NCC(=O)O)C(=O)O` [Glutathione], the “effectiveness as SSIA in the model system” value was “insuffient effectiveness”.

Each compound was assayed on PSA (assay: Screening SSIA by homogeneous PSA immunoassay (anti-PSA-AK1 + anti-PSA-HRP)). Settings: not given.
Format: biochemical, human
Description: This example presents one method used for testing of candidate compounds for functionality as SSIA in assays of the present disclosure. Testing was conducted in a model screening immunoassay of the protein PSA. Tests were run using a 96-well microtiter plate format. A solution containing 30 μL of mouse anti-PSA-AK1 (66 ng), 30 μL of mouse anti-PSA-HRP conjugate (7.8 ng), 36 μL of human female serum, and 24 μL of PSA calibrator were pipetted into each well. The plate was incubated at 37° C. for 10 minutes. A 5 μL aliquot of the test compound (various concentrations) was added to each well. Chemiluminescence was triggered by the addition of 100 μL of a solution of a trigger solution whose composition is listed below. The chemiluminescent flash was integrated for 5 seconds after the addition of the trigger solution using a Luminoskan Asent® plate luminometer, (Thermo Fischer Scientific, Inc., Waltham, Mass.).
It is desirable that the improvement factor be at least 2 (S5/S0≧ about 20-30) and more desirable that improvement factor be at least 5 (S5/S0≧ about 50), yet more desirable that S5/S0 be ≧100 in the present screen.
Compound `OCCO` [Ethylene glycol] has an S5/S0 of 14. `c1ccc2c(c1)Cc1ccccc1N2` gave an S5/S0 of 120.

Same assay, conditions: test compound final conc. 0.030 mM
For `Nc1ccc(O)cc1O`, the S5/S0 was 161.

Same assay, conditions: test compound final conc. 0.031 mM
`O=C1C(O)=C(Cl)C(=O)C(O)=C1Cl` was tested, and the S5/S0 was 7.

Same assay, conditions: test compound final conc. 34 uM
`[N-]=[N+]=[N-].[Na+]` [NaN3] gave an S5/S0 of 19.

Same assay, conditions: test compound final conc. 0.061 mM (61 uM)
For `NNC(=O)c1ccccc1O`, the S5/S0 was 23. Work on `Cc1cc(-c2cc(C)c(N)c(C)c2)cc(C)c1N` [TMB] yielded an S5/S0 of 20.

Same assay, conditions: test compound final conc. 72 uM
`O[C@@H](CS)[C@@H](O)CS` [DTT] showed an S5/S0 of 20.

Same assay, conditions: test compound final conc. 0.244 mM (244 uM)
`Nc1cc2ccccc2cc1O` showed an S5/S0 of 67. `NN` [NH2NH2] gave an S5/S0 of 15. `Oc1ccc(Cl)cc1O` [drawing 108] was tested, and the S5/S0 was 409. `Nc1ccc2ccccc2c1O` showed an S5/S0 of 109. `O=S(=O)([O-])CCCN1c2ccccc2Cc2ccccc21.[Na+]` gave an S5/S0 of 15. With `Nc1cc(C[C@H](N)C(=O)O)ccc1O` the S5/S0 was 448. Compound `OB(O)c1cc(Cl)ccc1O` has an S5/S0 of 22. `O=S(=O)([O-])CCCN1c2ccccc2Sc2ccccc21.[Na+]` showed an S5/S0 of 50. For `O=S(=O)([O-])CCCOCCCN1c2ccccc2Cc2ccccc21.[Na+]`, the S5/S0 was 6.

Same assay, conditions: test compound final conc. 1.25 mM
Compound `CC1=C(O)C(=O)C(C)O1` (stereo not shown) has an S5/S0 of 237.

Same assay, conditions: test compound final conc. 24.4 mM
`Nc1ncc[nH]1` showed an S5/S0 of 14.

Same assay, conditions: test compound final conc. 36.7 mM
In the case of `Cn1ccnc1S`, the S5/S0 is reported as 102.

Same assay, conditions: test compound final conc. […] ([…]); S5 = 129 ng PSA/mL vs zero PSA
Work on `N[C@@H](CCC(=O)N[C@@H](CS)C(=O)NCC(=O)O)C(=O)O` [Glutathione] yielded an S5/S0 of 77. `O=C(O)c1cc(O)c2ccccc2n1` was tested, and the S5/S0 was 6. Compound `O=c1c(O)c(-c2ccccc2)oc2ccc(O)cc12` has an S5/S0 of 9. `Nc1c(O)cc(S(=O)(=O)O)c2ccccc12` gave an S5/S0 of 65. Compound `O=c1ccc2cc(O)c(O)cc2o1` has an S5/S0 of 105. `c1ccc2c(c1)Nc1ccccc1O2` [drawing 87] showed an S5/S0 of 605. `O=C1O[C@H]([C@H](O)CO)C(O)=C1O` was tested, and the S5/S0 was 10.3. Work on `O=C(c1ccccc1)C1c2ccccc2Nc2ccccc21` yielded an S5/S0 of 9. For `O=C1O[C@H]([C@@H](O)CO)C(=O)C1=O`, the S5/S0 was 26. `O=C1O[C@H]([C@@H](O)CO)C([O-])=C1O.[Na+]` [ascorbate sodium salt (ascorbate anion), ascorbate sodium salt] was tested, and the S5/S0 was 495. `COc1ccccc1N` showed an S5/S0 of 7. With `O=c1c(O)c(-c2ccccc2)oc2ccccc12` the S5/S0 was 13. `Oc1cccnc1O` showed an S5/S0 of 41. `Oc1ccc([C@@H]2Oc3cc(O)c(O)cc3C[C@@H]2O)cc1O` gave an S5/S0 of 323. With `O=C1O[C@H]([C@@H](O)CO)C(O)=C1O` [drawing 89] the S5/S0 was 423. `O=c1c2ccccc2[nH]c2ccccc12` showed an S5/S0 of 14. Work on `COc1ccccc1O` yielded an S5/S0 of 13. In the case of `O=C(O)c1cc(O)c(O)c(O)c1`, the S5/S0 is reported as 135. For `O=c1c(O)c(-c2ccccc2)oc2cc(O)ccc12`, the S5/S0 was 14. Compound `Oc1ccc(O)c(Br)c1` has an S5/S0 of 570. With `O=C(O)/C=C/c1ccc(O)c(O)c1` the S5/S0 was 116. With `Nc1ccccc1O` [drawing 97] the S5/S0 was 649. For `c1ccc2c(c1)Cc1ccccc1O2`, the S5/S0 was 4. `Oc1cccc(O)c1O` showed an S5/S0 of 69. For `COC1=C(O)C(=O)O[C@@H]1[C@@H](O)CO`, the S5/S0 was 16. `Cc1cc(CO)c(O)c(CO)c1` was tested, and the S5/S0 was 23. `O=C1O[C@H]([C@@H](O)CO)C(O)=C1O` [drawing 128] showed an S5/S0 of 10.3. Work on `Nc1ccc(C(=O)O)cc1O` [drawing 110] yielded an S5/S0 of 153. In the case of `C[C@H]1OC(=O)C(O)=C1O`, the S5/S0 is reported as 423. Work on `Nc1ncccc1O` yielded an S5/S0 of 32. `O=C1O[C@H]([C@@H](O)CO)C([O-])=C1O.[Na+]` gave an S5/S0 of 9.2. With `N[C@@H](CS)C(=O)O` [L-Cysteine] the S5/S0 was 22. With `Cc1ccc(O)c(O)c1` the S5/S0 was 142. With `O=C(O)/C(O)=C(/O)C(=O)O` the S5/S0 was 30. In the case of `Nc1ccccc1S`, the S5/S0 is reported as 234. With `c1ccc2c(c1)Cc1ccccc1S2` the S5/S0 was 9. `O=C(O)C1c2ccccc2Oc2ccccc21` showed an S5/S0 of 7.
